# Reference: patent US8741942B2, “Inhibitors of cellular necrosis” (President and Fellows of Harvard College, priority 2003, dated 2014)
# Structures can show the parent of a compound that is named as a salt.
# System: human Jurkat T cells challenged with Fas ligand and treated with zVAD
# Test: Anti-necrotic activity, human Jurkat T cells challenged with Fas ligand and treated with zVAD
# Type: cell-based
# Conditions: viability after 36 h by CellTiter ATP assay, read-out: EC50 (μM) for cell viability
# Description: (§1) After a cell receives an initial assault either apoptotic, necrotic, or both apoptotic and necrotic mechanisms of cell death may be activated. The present example focuses on the necrosis pathway. Several chemical assaults were used to induce cell death, including exposure to tumor necrosis factor alpha (TNF-α), Fas ligand or β-amyloid protein. Various cell types were also used, including human neuroblastoma cells (SH-SY5Y) and human Jurkat T cells. In order to block the apoptosis mechanism, a general caspase inhibitor, N-benzyloxycarbonyl-valine-alanine-aspartic acid-(OMe) fluoromethyl ketone (zVAD, Polyerino, A. J.; Patterson, S. D. J. Biol. Chem. 1997, 272, 7013-7021), was used. […] Resulting cell death occurs by a necrosis-like mechanism (Holler, N., et al. Nature Immunol. 2000, 1, 489-495; Kawahara, A., et al. J. Cell Biol. 1998, 143, 1353-1360). Experimental compounds were applied to the cells in attempts to rescue them from this necrotic death. Therefore, compounds found to restore cell viability using this protocol are inhibitors of the necrosis pathway.
# Compounds were also tested in another necrosis assay utilizing human Jurkat T cells, Fas ligand to induce cell death, and zVAD to inhibit the apoptosis pathway. After 36 h, cell viability was measure by the commercial CellTiter ATP cell viability assay (Promega).
# Compounds were screened for anti-necrotic activity utilizing human Jurkat T cells challenged with Fas ligand and treated with zVAD to inhibit the apoptosis pathway.
row,SMILES,EC50
1,"CN1C(=O)C(Cc2c[nH]c3c(Cl)cccc23)NC1=S (centres unmarked) [Compound 893-10, 5-(7-Chloro-1H-indol-3-ylmethyl)-3-methyl-2-thioxo-imidazolidin-4-one]",1.5 µM
2,"CN1C(=O)NC(Cc2c[nH]c3ccccc23)C1=O (centres unmarked) [Compound 893-20, 3-Methyl-5-(1H-indol-3-ylmethyl)-imidazolidine-2,4-dione]",6 µM
3,"CCN1C(=O)NC(Cc2c[nH]c3ccccc23)C1=O (centres unmarked) [Compound 893-04, 3-Ethyl-5-(1H-indol-3-ylmethyl)-imidazolidine-2,4-dione]",10 µM
4,"CN1C(=O)C(Cc2c[nH]c3ccccc23)NC1=S (centres unmarked) [Compound 893-01, 5-(1H-Indol-3-ylmethyl)-3-methyl-2-thioxo-imidazolidin-4-one]",6 µM
5,"CN1C(=O)C(Cc2csc3ccccc23)NC1=S (centres unmarked) [Compound 893-21, 5-Benzo[b]thiophen-3-ylmethyl-3-methyl-2-thioxo-imidazolidin-4-one]",8 µM
6,"CN1C(=O)C(Cc2c[nH]c3c(F)cccc23)NC1=S (centres unmarked) [Compound 893-09, 5-(7-Fluoro-1H-Indol-3-ylmethyl)-3-methyl-2-thioxo-imidazolidin-4-one]",4 µM
7,"CN1C(=O)C(Cc2c[nH]c3cc(Cl)ccc23)NC1=S (centres unmarked) [Compound 893-11, 5-(6-Chloro-1H-indol-3-ylmethyl)-3-methyl-2-thioxo-imidazolidin-4-one]",67 µM
8,"CN1C(=O)C(Cc2cn(C)c3ccccc23)NC1=S (centres unmarked) [Compound 893-08, 3-Methyl-5-(1-methyl-1H-Indol-3-ylmethyl)-2-thioxo-imidazolidin-4-one]",35 µM
9,"CN1C(=O)C(Cc2c[nH]c3c(Br)cccc23)NC1=S (centres unmarked) [Compound 893-12, 5-(7-Bromo-1H-indol-3-ylmethyl)-3-methyl-2-thioxo-imidazolidin-4-one]",1.8 µM
10,"CN1C(=O)C(Cc2c[nH]c3cc(F)ccc23)NC1=S (centres unmarked) [Compound 893-05, 5-(6-Fluoro-1H-Indol-3-ylmethyl)-3-methyl-2-thioxo-imidazolidin-4-one]",2.3 µM
11,"COc1cccc2c(CC3NC(=S)N(C)C3=O)c[nH]c12 (centres unmarked) [Compound 893-13, 5-(7-Methoxy-1H-indol-3-ylmethyl)-3-methyl-2-thioxo-imidazolidin-4-one]",10.3 µM

# System: human FAD-deficient Jurkat T cells challenged with human TNF-alpha
# Test: Anti-necrotic activity, FADD-/- Jurkat T cells challenged with human TNF-alpha
# Type: cell-based
# Conditions: 10 ng/ml human TNFα, 30 hours, CellTiter-Glo ATP assay, read-out: EC50 (μM) for cell viability
# Description: Compounds were screened for anti-necrotic activity utilizing human FAD-deficient Jurkat T cells challenged with human TNF-alpha. FADD−/− Jurkat cells (Juo P, et al. Cell Growth Differ. 1999, 10(12):797-804) were seeded at the density of 5*10^5 cells/mL into 96 well white plates (Costar) at 100 μL/well. Cells were treated in duplicate with various concentrations of test compounds in the presence or absence of 10 ng/ml human TNFα (Cell Sciences). After 30 hours viability of the cells was determined using luminescent ATP-based cell viability assay (CellTiter-Glo, Promega). Percentage of protection by the compound was calculated as a ratio of the cps (counts per second) value in the well treated with the test compound and TNFα to the cps value in the well treated with the compound alone.
row,SMILES,EC50
1,Cc1cccc2c(CC3NC(=O)N(C)C3=O)c[nH]c12 (centres unmarked) [Compound 893-38],> 10 µM
2,Cc1cccc2c(CC3NC(=O)N(C)C3=O)c[nH]c12 (centres unmarked) [Compound 893-23],0.095 µM

# Same assay, conditions: Homo sapiens, Jurkat, 30 h, 10 ng/ml human TNFα, CellTiter-Glo ATP assay, read-out: EC50 (μM) for cell viability
row,SMILES,EC50
1,COc1cccc2c(CC3NC(=O)N(C)C3=O)c[nH]c12 (centres unmarked) [Compound 893-25],0.229 µM
2,"CN1C(=O)NC(Cc2csc3ccccc23)C1=O (racemic) [Compound 893-39, 5-benzo[b]thiophen-3-ylmethyl-3-methyl-imidazolidine-2,4-dione]",5.4 µM
3,CN1C(=O)NC(Cc2c[nH]c3c(Cl)cc(Cl)cc23)C1=O (centres unmarked) [Compound 893-33],> 10 µM
4,"CN1C(=O)NC(Cc2c[nH]c3ccccc23)C1=O (centres unmarked) [Compound 893-22, 5-(1H-Indol-3-ylmethyl)-3-methylimidazolidine-2,4-dione]",0.439 µM
5,"CN1C(=O)C(Cc2c[nH]c3c(Cl)cccc23)N(C)C1=O (centres unmarked) [Compound 893-36, 5-(7-Chloro-1H-indol-3-ylmethyl)-1,3-dimethyl-imidazolidine-2,4-dione]",> 10 µM
6,CCN1C(=O)NC(Cc2c[nH]c3c(Cl)cccc23)C1=O (centres unmarked) [Compound 893-34],0.154 µM
7,CN1C(=O)N[C@@H](Cc2c[nH]c3c(Cl)cccc23)C1=O [Compound 893-31],0.303 µM
8,CN1C(=O)NC(Cc2c[nH]c3c(Cl)c(Cl)ccc23)C1=O (centres unmarked) [Compound 893-50],> 10 µM
9,"CN1C(=O)NC(Cc2cn(C)c3c(Cl)cccc23)C1=O (centres unmarked) [Compound 893-37, 5-(7-Chloro-1-methyl-1H-indol-3-ylmethyl)-3-methyl-imidazolidine-2,4-dione]",1.8 µM
10,COCCOc1cccc2c(CC3NC(=O)N(C)C3=O)c[nH]c12 (centres unmarked) [Compound 893-41],> 10 µM
11,"CN1C(=O)OC(Cc2c[nH]c3c(Cl)cccc23)C1=O (centres unmarked) [Compound 893-53, 5-(7-chloro-1H-indol-3-ylmethyl)-3-methyl-oxazolidine-2,4-dione]",0.359 µM
12,"CN1C(=O)C(Cc2csc3ccccc23)NC1=S (centres unmarked) [Compound 893-21, 5-Benzo[b]thiophen-3-ylmethyl-3-methyl-2-thioxo-imidazolidin-4-one]",0.845 µM
13,CN1C(=O)NC(Cc2c[nH]c3c(F)cccc23)C1=O (centres unmarked) [Compound 893-28],0.324 µM
14,CN1C(=O)NC(Cc2c[nH]c3c(OCc4ccccc4)cccc23)C1=O (centres unmarked) [Compound 893-42],> 10 µM
15,Cc1[nH]c2c(Cl)cccc2c1CC1NC(=O)N(C)C1=O (centres unmarked) [Compound 893-43],> 10 µM
16,"CN1CC(Cc2c[nH]c3c(Cl)cccc23)NC1=O (centres unmarked) [Compound 893-52, 4-(7-chloro-1H-indol-3-ylmethyl)-1-methyl-imidazolidin-2-one]",> 10 µM
17,CC(C)N1C(=O)NC(Cc2c[nH]c3c(Cl)cccc23)C1=O (centres unmarked) [Compound 893-44],> 10 µM
18,CN1C(=O)N[C@H](Cc2c[nH]c3c(Cl)cccc23)C1=O [Compound 893-32],0.078 µM
19,"O=C1NC(Cc2c[nH]c3c(Cl)cccc23)CO1 (centres unmarked) [Compound 893-51, 4-(7-chloro-1H-indol-3-ylmethyl)-oxazolidin-2-one]",> 10 µM

# System: human B cell line U-937
# Test: Library screen for inhibition of cell death induced by TNF-α in the presence of zVAD
# Type: cell-based
# Conditions: U-937 cells
# Description: as §1
# Compound libraries were screened for inhibition of cell death induced by TNF-α in the presence of zVAD in human B cell line U-937.
row,SMILES,inhibition of cell death induced by TNF-α in the presence of zVAD
1,CN1C(=O)C(Cc2c[nH]c3ccccc23)NC1=S (centres unmarked) [Compound 1],inhibitor of necrosis

# System: not given
# Test: not given
# Conditions: not given
row,SMILES,melting point
1,"CN1C(=O)C(Cc2c[nH]c3ccc(O)cc23)NC1=S (centres unmarked) [Compound 893-07, 5-(5-Hydroxy-1H-Indol-3-ylmethyl)-3-methyl-2-thioxo-imidazolidin-4-one]",166 to 168 °C
2,"CN1C(=O)C(Cc2c[nH]c3ccccc23)N(C)C1=S (centres unmarked) [Compound 893-03, 5-(1H-Indol-3-ylmethyl)-1,3-dimethyl-2-thioxo-imidazolidin-4-one]",132 to 135 °C
3,"CN1C(=O)C(Cc2c[nH]c3c(F)cccc23)NC1=S (centres unmarked) [Compound 893-09, 5-(7-Fluoro-1H-Indol-3-ylmethyl)-3-methyl-2-thioxo-imidazolidin-4-one]",217 to 220 °C
4,"CN1C(=O)C(Cc2c[nH]c3c(Cl)cc(S(C)(=O)=O)cc23)NC1=S (centres unmarked) [Compound 893-16, 5-(7-Chloro-5-methanesulfonyl-1H-indol-3-ylmethyl)-3-methyl-2-thioxo-imidazolidin-4-one]",242 to 245 °C
5,O=C1NC(=O)C(Cc2c[nH]c3ccccc23)N1 (centres unmarked) (as salt: potassium),229 to 232 °C
6,"CN1C(=O)C(Cc2cn(C)c3ccccc23)NC1=S (centres unmarked) [Compound 893-08, 3-Methyl-5-(1-methyl-1H-Indol-3-ylmethyl)-2-thioxo-imidazolidin-4-one]",155 to 157 °C
7,"CN1C(=O)C(Cc2c[nH]c3c(Br)cccc23)NC1=S (centres unmarked) [Compound 893-12, 5-(7-Bromo-1H-indol-3-ylmethyl)-3-methyl-2-thioxo-imidazolidin-4-one]",230 to 233 °C
8,"CN1C(=O)C(Cc2c[nH]c3cc(F)ccc23)NC1=S (centres unmarked) [Compound 893-05, 5-(6-Fluoro-1H-Indol-3-ylmethyl)-3-methyl-2-thioxo-imidazolidin-4-one]",126 to 129 °C
9,"COc1cccc2c(CC3NC(=S)N(C)C3=O)c[nH]c12 (centres unmarked) [Compound 893-13, 5-(7-Methoxy-1H-indol-3-ylmethyl)-3-methyl-2-thioxo-imidazolidin-4-one]",219 to 222 °C
10,"COc1ccc2[nH]cc(CC3NC(=S)N(C)C3=O)c2c1 (centres unmarked) [Compound 893-06, 5-(5-Methoxy-1H-Indol-3-ylmethyl)-3-methyl-2-thioxo-imidazolidin-4-one]",181 to 185 °C
11,"CN1C(=O)C(C)(Cc2c[nH]c3ccccc23)NC1=S (centres unmarked) [Compound 893-02, 5-(1H-Indol-3-ylmethyl)-3,5-dimethyl-2-thioxo-imidazolidin-4-one]",179 to 182 °C
